According to ChEMBL document CHEMBL5154873, “Selective degradation of PARP2 by PROTACs via recruiting DCAF16 for triple-negative breast cancer” (Eur J Med Chem, 2022):
Calls of active or inactive are those of the source. No cut-off for these calls is given here.

Key:
MDA-MB-436 [1] = test: Antiproliferative activity against human BRCA1 -/- MDA-MB-436 cells assessed as reduction in cell viability incubated for 5 to 10 days by MTT assay; type: functional, cell-based
MDA-MB-231 [2] = test: Antiproliferative activity against wild type human MDA-MB-231 cells assessed as reduction in cell viability incubated for 5 to 10 days by MTT assay; type: functional, cell-based
CAPAN-1 = test: Antiproliferative activity against human BRCA2 -/- CAPAN-1 cells assessed as reduction in cell viability incubated for 5 to 10 days by MTT assay; type: functional, cell-based
MDA-MB-468 = test: Antiproliferative activity against human PTEN -/- MDA-MB-468 cells assessed as reduction in cell viability incubated for 5 to 10 days by MTT assay; type: functional, cell-based
[3] = target: DDB1- and CUL4-associated factor 16/Poly [ADP-ribose] polymerase 2 (Homo sapiens, UniProt Q9UGN5+Q9NXF7); test: Protac activity at DCAF16 E3 ligase/PARP2 in human MDA-MB-231 cells assessed as induction of PARP2 degradation at 1 uM measured after 24 hrs by Western blot analysis; type: cell-based
DDB1- and CUL4-associated factor 16/Poly [ADP-ribose] polymerase 2, sequence (Q9NXF7 whole entry, looked up): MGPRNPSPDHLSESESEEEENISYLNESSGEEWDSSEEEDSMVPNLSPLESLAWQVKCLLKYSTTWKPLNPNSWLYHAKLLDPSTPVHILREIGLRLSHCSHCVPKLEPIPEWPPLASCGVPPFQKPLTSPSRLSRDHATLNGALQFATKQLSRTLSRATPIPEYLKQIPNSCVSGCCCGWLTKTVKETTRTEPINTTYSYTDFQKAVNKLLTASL
DDB1- and CUL4-associated factor 16/Poly [ADP-ribose] polymerase 2, sequence (Q9UGN5 whole entry, looked up): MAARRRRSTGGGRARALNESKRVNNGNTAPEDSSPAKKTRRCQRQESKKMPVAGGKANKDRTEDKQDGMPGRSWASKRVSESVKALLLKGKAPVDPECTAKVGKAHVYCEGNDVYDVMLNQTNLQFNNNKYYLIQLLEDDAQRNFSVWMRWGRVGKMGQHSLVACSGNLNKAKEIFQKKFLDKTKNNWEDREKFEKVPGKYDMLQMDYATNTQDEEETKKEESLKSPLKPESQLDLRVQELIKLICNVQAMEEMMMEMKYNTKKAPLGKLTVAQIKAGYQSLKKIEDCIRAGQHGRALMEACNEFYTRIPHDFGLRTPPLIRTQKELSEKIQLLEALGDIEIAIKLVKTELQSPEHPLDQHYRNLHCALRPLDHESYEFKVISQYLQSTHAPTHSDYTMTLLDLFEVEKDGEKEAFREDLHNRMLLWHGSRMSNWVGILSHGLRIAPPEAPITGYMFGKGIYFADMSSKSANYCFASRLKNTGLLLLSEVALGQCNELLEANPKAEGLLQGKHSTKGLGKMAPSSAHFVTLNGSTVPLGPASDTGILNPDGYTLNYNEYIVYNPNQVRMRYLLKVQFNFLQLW

MDA-MB-436 [4] = test: Induction of cell cycle arrest in human (BRAC1-/-) MDA-MB-436 cells assessed as accumulation at G2/M phase measured after 48 hrs by flow cytometry analysis; type: functional, cell-based; conditions: dose 0.312-2.5 µM, DDE = dose-dependent effect
MDA-MB-231 [5] = test: In vivo antitumor activity against human MDA-MB-231 cells xenografted BALB/c mouse assessed as tumor growth inhibition at 100 mg/kg, IG measured after 21 days; type: functional; conditions: MDA-MB-231, po, 504 h, time 21 day, read-out: TGI
MDA-MB-231 [6] = test: Induction of cell cycle arrest in human MDA-MB-231 cells assessed as accumulation at G2/M phase measured after 24 hrs by flow cytometry analysis; type: functional, cell-based; conditions: dose 0.156-1.25 µM, DDE = dose-dependent effect

SMILES | IC50 (MDA-MB-436 [1]) [nM] | IC50 (MDA-MB-231 [2]) [nM] | IC50 (CAPAN-1) [nM] | IC50 (MDA-MB-468) [nM] | Activity [3] | Activity (MDA-MB-436 [4]) | inhibition in vivo at 100 mg/kg (MDA-MB-231 [5]) [%] | Activity (MDA-MB-231 [6])
O=C(CCC(=O)N1CCN(C(=O)c2cc(Cc3n[nH]c(=O)c4ccccc34)ccc2F)CC1)NCCNC(=O)COc1ccc2c(c1)CCCN2C(=O)CCl | 1480 | 8440 | 3160 | 6180 | Active |  |  | 
O=C(COc1ccc2c(c1)CCCN2C(=O)CCl)NCC(=O)N1CCN(C(=O)c2cc(Cc3n[nH]c(=O)c4ccccc34)ccc2F)CC1 | 55 | 3510 | 610 | 5850 |  |  |  | 
O=C(COc1ccc2c(c1)CCCN2C(=O)CCl)NCCCCC(=O)N1CCN(C(=O)c2cc(Cc3n[nH]c(=O)c4ccccc34)ccc2F)CC1 | 570 | > 20000 | 790 | 7240 |  |  |  | 
O=C(CCC(=O)N1CCN(C(=O)c2cc(Cc3n[nH]c(=O)c4ccccc34)ccc2F)CC1)NCCCNC(=O)COc1ccc2c(c1)CCCN2C(=O)CCl | 1190 | 7190 | 1870 | 5900 | Active |  |  | 
O=C(COc1ccc2c(c1)CCCN2C(=O)CCl)NCCOCCOCCOCCOCCNC(=O)CN1CCN(C(=O)c2cc(Cc3n[nH]c(=O)c4ccccc34)ccc2F)CC1 | 5020 | > 20000 | 7040 | > 20000 |  |  |  | 
O=C(COc1ccc2c(c1)CCCN2C(=O)CCl)NCCCCCCCCC(=O)N1CCN(C(=O)c2cc(Cc3n[nH]c(=O)c4ccccc34)ccc2F)CC1 | 77 | 2690 | 150 | 1700 | Active |  |  | 
O=C(CCC(=O)N1CCN(C(=O)c2cc(Cc3n[nH]c(=O)c4ccccc34)ccc2F)CC1)NCCCCCNC(=O)COc1ccc2c(c1)CCCN2C(=O)CCl | 290 | 2420 | 890 | 1220 | Active |  |  | 
CCC(=O)N1CCCc2cc(OCC(=O)NCCCCCCCCCCC(=O)N3CCN(C(=O)c4cc(Cc5n[nH]c(=O)c6ccccc56)ccc4F)CC3)ccc21 | 43 | 3100 | 87 | 2230 |  |  |  | 
O=C(COc1ccc2c(c1)CCCN2C(=O)CCl)NCCC(=O)N1CCN(C(=O)c2cc(Cc3n[nH]c(=O)c4ccccc34)ccc2F)CC1 | 660 | > 20000 | 900 | > 20000 |  |  |  | 
O=C(CCC(=O)N1CCN(C(=O)c2cc(Cc3n[nH]c(=O)c4ccccc34)ccc2F)CC1)NCCOCCNC(=O)COc1ccc2c(c1)CCCN2C(=O)CCl | 1480 | 8270 | 2830 | 6010 |  |  |  | 
O=C(COc1ccc2c(c1)CCCN2C(=O)CCl)NCCCCCCNC(=O)CN1CCN(C(=O)c2cc(Cc3n[nH]c(=O)c4ccccc34)ccc2F)CC1 | 1960 | 12300 | 4360 | 11200 |  |  |  | 
O=C(COc1ccc2c(c1)CCCN2C(=O)CCl)NCCCCCCCCCCC(=O)N1CCN(C(=O)c2cc(Cc3n[nH]c(=O)c4ccccc34)ccc2F)CC1 | 25 | 810 | 68 | 720 | Active |  |  | 
O=C(COc1ccc2c(c1)CCCN2C(=O)CCl)NCCOCCOCCNC(=O)CN1CCN(C(=O)c2cc(Cc3n[nH]c(=O)c4ccccc34)ccc2F)CC1 | 3460 | > 20000 | 7630 | > 20000 |  |  |  | 
NC(=O)n1nc(Cc2ccc(F)c(C(=O)N3CCN(C(=O)CCC(=O)NCCCCNC(=O)COc4ccc5c(c4)CCCN5C(=O)CCl)CC3)c2)c2ccccc2c1=O | 820 | 9740 | 1960 | 7450 | Active |  |  | 
O=C(CCC(=O)N1CCN(C(=O)c2cc(Cc3n[nH]c(=O)c4ccccc34)ccc2F)CC1)NCCCCCCCNC(=O)COc1ccc2c(c1)CCCN2C(=O)CCl | 660 | 6210 | 1690 | 5700 | Active |  |  | 
O=C(CCC(=O)N1CCN(C(=O)c2cc(Cc3n[nH]c(=O)c4ccccc34)ccc2F)CC1)NCCCCCCNC(=O)COc1ccc2c(c1)CCCN2C(=O)CCl | 350 | 5590 | 990 | 3910 | Active |  |  | 
O=C(COc1ccc2c(c1)CCCN2C(=O)CCl)NCCNC(=O)CN1CCN(C(=O)c2cc(Cc3n[nH]c(=O)c4ccccc34)ccc2F)CC1 | 1690 | > 20000 | 3300 | 13400 |  |  |  | 
O=C(COc1ccc2c(c1)CCCN2C(=O)CCl)NCCCCCC(=O)N1CCN(C(=O)c2cc(Cc3n[nH]c(=O)c4ccccc34)ccc2F)CC1 | 240 | 5310 | 390 | 4680 |  |  |  | 
O=C(COc1ccc2c(c1)CCCN2C(=O)CCl)NCCOCCOCCOCCn1cc(CCCCC(=O)N2CCN(C(=O)c3cc(Cc4n[nH]c(=O)c5ccccc45)ccc3F)CC2)nn1 | 630 | 6680 | 2230 | 8170 |  |  |  | 
O=C(CCC(=O)N1CCN(C(=O)c2cc(Cc3n[nH]c(=O)c4ccccc34)ccc2F)CC1)NCCOCCOCCNC(=O)COc1ccc2c(c1)CCCN2C(=O)CCl | 1190 | 12900 | 1280 | 9740 |  |  |  | 
O=C(COc1ccc2c(c1)CCCN2C(=O)CCl)NCCOCCOCCOCCNC(=O)CN1CCN(C(=O)c2cc(Cc3n[nH]c(=O)c4ccccc34)ccc2F)CC1 | 1740 | > 20000 | 3490 | > 20000 |  |  |  | 
O=C(COc1ccc2c(c1)CCCN2C(=O)CCl)NCCCCNC(=O)CN1CCN(C(=O)c2cc(Cc3n[nH]c(=O)c4ccccc34)ccc2F)CC1 | 1840 | 11600 | 2690 | 9100 |  |  |  | 
O=C(COc1ccc2c(c1)CCCN2C(=O)CCl)NCCCNC(=O)CN1CCN(C(=O)c2cc(Cc3n[nH]c(=O)c4ccccc34)ccc2F)CC1 | 2700 | > 20000 | 3370 | > 20000 |  |  |  | 
O=C(c1cc(Cc2n[nH]c(=O)c3ccccc23)ccc1F)N1CCN(C(=O)C2CC2)CC1 [OLAPARIB] |  |  |  |  |  | Dde | 57.8 | Dde
O=C(CCC(=O)N1CCN(C(=O)c2cc(Cc3n[nH]c(=O)c4ccccc34)ccc2F)CC1)NCCOCCOCCOCCNC(=O)COc1ccc2c(c1)CCCN2C(=O)CCl | 1750 | 9710 | 1600 | 6370 |  |  |  | 
O=C(COc1ccc2c(c1)CCCN2C(=O)CCl)NCCCCCCCC(=O)N1CCN(C(=O)c2cc(Cc3n[nH]c(=O)c4ccccc34)ccc2F)CC1 | 110 | 4230 | 120 | 2110 | Active |  |  | 
O=C(CCC(=O)N1CCN(C(=O)c2cc(Cc3n[nH]c(=O)c4ccccc34)ccc2F)CC1)NCCOCCOCCOCCOCCNC(=O)COc1ccc2c(c1)CCCN2C(=O)CCl | 780 | 11000 | 1950 | 7430 |  |  |  | 
O=C(COc1ccc2c(c1)CCCN2C(=O)CCl)NCCOCCNC(=O)CN1CCN(C(=O)c2cc(Cc3n[nH]c(=O)c4ccccc34)ccc2F)CC1 | 2890 | > 20000 | 5280 | > 20000 |  |  |  | 
O=C(COc1ccc2c(c1)CCCN2C(=O)CCl)NCCCC(=O)N1CCN(C(=O)c2cc(Cc3n[nH]c(=O)c4ccccc34)ccc2F)CC1 | 490 | > 20000 | 840 | > 20000 |  |  |  | 
